Experimental data as given in patent US20240226357A1, “Sanitization Method for Affinity Chromatography Matrices” (priority 2015, published 2024).
Read-outs that look alike come from different tables or passages of the source.

How the values were obtained:
[1] = tested on: Bacillus subtilis (spores); test: Disinfectant challenge test in Capto L 50% slurry, viable count of spores; type: cell-based; details: for Log10 reduction of Bacillus subtilis spores: mean of duplicates
Procedure: (§1) The purpose of this investigation was to evaluate the bactericidal and sporicidal effect on • bacterial spores and bacteria of eight disinfectants as well as PBS as reference added to • Capto L 50% slurry. The effect was tested with contact times of 0 and 15 minutes as well as • 1, 4, and 24 hours.
(§2) The test was performed in slurries of Capto L 50% and disinfectants. Microorganisms were • added at a concentration of approximately 10^7 cfu/mL to the suspension and the reducing effect was evaluated after given time intervals by neutralizing the disinfectant. […] The results were evaluated with regard to log10 reductions of the microorganisms Bacillus subtilis (spores) and Pseudomonas aeruginosa (vegetative bacteria).
(§3) 10^7 cfu/mL of the microorganism was added to 10 mL of Capto L 50% slurry with disinfectant. Samples were mixed and duplicate samples of 0.1 mL were added to 50 mL of neutralizing agent (0.075 M phosphate buffer with 0.3% lecithin, 3.0% Tween 80, 0.5% sodium thiosulfate and 0.1% L-histidine). The total solution was analyzed by filtrating fractions corresponding to 10-times serial dilutions. Filters were rinsed three times with 100 mL of 0.9% NaCl. As positive control each microorganism was added to 50 mL of neutralizing agent, the same amount added as for the disinfectant challenge tests. The total solution was analyzed by filtrating fractions corresponding to 10-times serial dilutions. Filters were rinsed three times with 100 mL of 0.9% NaCl. Filters were incubated on TSA (Trypticase Soy Agar) at 30-35° C. for 2-5 days. Preliminary reading was performed after 1-3 days. The reduction of microorganisms was calculated as the log10 of the surviving microorganisms as compared to that of the positive control.

[2] = tested on: Pseudomonas aeruginosa (vegetative bacteria); test: Disinfectant challenge test in Capto L 50% slurry, viable count of vegetative bacteria; type: cell-based; details: mean of duplicates
Procedure: as §1, §2, §3

Fab = details: Capto L, compared to PBS control
Procedure: A PreDictor™ (GE Healthcare) 96-well filter plate with 6 microliters Capto L in each well was subjected to the following procedure: • Removal of PreDictor storage solution (20% Ethanol) • Wash: 3×200 μl 20 mM phosphate, 150 mM NaCl pH 7.4 • Wash 3×200 μl MilliQ • Addition of 600 μl SIP solutions and 20 mM phosphate, 150 mM NaCl pH 7.4 (control) (48 solutions and duplicates in plate) • Sealing of bottom and top of the plates with Parafilm • Incubation in SIP solutions for 4 or 24 hours with shaking at 450 rpm • Liquids were removed by centrifugation (500×g, 1 min).
The static binding capacity (SBC) of a Fab was determined by: • 1. Removal of SIP solutions • 2. Wash: 1x600 μl MilliQ, 1x600 μl PBS • 3. Equilibration: 3x200 μl 20 mM phosphate, 150 mM NaCl pH 7.4 • 4. Sample loading: 200 μl Fab at a concentration of 2.5 mg/mL, incubation 10 min and 90 min at 1100 rpm • 5. Collection of unbound sample in UV-readable plates and measurement of UV absorbance at 280 (and 254 nm)
Liquids were removed by centrifugation (500×g, 1 min).
The UV absorbance of the PBS buffer at 280 nm (path check on) was subtracted from the UV absorbance of the flow through fraction (A280-blank280)
The concentration in the flow through fraction was calculated using a standard curve (A280-blank280)/1.2796
[formula] • Vsample=200μl • Vmedium=6 μl • Vr=6+0.6*Vmedium=9.6 • Vr: The retained volume i.e. filter volume (6 μl) and liquid volume in resin (0.6*6)

[3] = tested on: monoclonal antibody immobilized on a Biacore chip; test: Biacore (SPR) binding kinetics of ligands before and after incubation in 0.1 M peracetic acid; details: ligand incubated for 0 to 24 h in 0.1 M PAA
Procedure: The kinetics was measured by Surface Plasmon Resonance on a Biacore™ instrument. […] Reference sample (0 h) was withdrawn, 100 μl and buffer exchanged to 50 mM Ammonium Bicarbonate. • 4. 10% 1 M PAA was added and the incubations started. • 5. Samples were withdrawn after 1, 2, 4, 8, 16 and 24 h, 100 μl and buffer exchanged to 50 mM Ammonium Bicarbonate to stop the oxidation reaction. • 6. The concentrations were measured in all samples by measuring the UV absorbance at 276 nm. • 7. The samples were then analyzed on LC-MS and Biacore.

[4] = 4 h incubation in SIP solution, 90' incubation with Fab sample
[5] = 24 h incubation in SIP solution, 10' incubation with Fab sample

CC(=O)OO [0.1M Peracetic acid, peracetic acid]
Killing of B. subtilis spores (in words) ([1]; among the tested disinfectants): capable of efficiently killing B. subtilis spores
Log10 reduction of Bacillus subtilis spores ([1]; contact time 0 min): 5.6 log10
Log10 reduction of Bacillus subtilis spores ([1]; contact time 15 min): >6.9 log10
Log10 reduction of Bacillus subtilis spores ([1]; contact time 1 hour): >6.9 log10
Log10 reduction of Bacillus subtilis spores ([1]; contact time 4 hours): >6.9 log10
Log10 reduction of Bacillus subtilis spores ([1]; contact time 24 hours): >6.9 log10
Log10 reduction of Pseudomonas aeruginosa ([2]; contact time 0 min): >6.9 log10
Log10 reduction of Pseudomonas aeruginosa ([2]; contact time 15 min): >6.9 log10
Log10 reduction of Pseudomonas aeruginosa ([2]; contact time 1 hour): >6.9 log10
Log10 reduction of Pseudomonas aeruginosa ([2]; contact time 4 hours): >6.9 log10
Log10 reduction of Pseudomonas aeruginosa ([2]; contact time 24 hours): >6.9 log10
Relative remaining SBC (%) (Fab; 4 h incubation in SIP solution, 10' incubation with Fab sample, listed as 100 mM Peracetic acid): 109%
Relative remaining SBC (%) (Fab; 4 h incubation in SIP solution, 90' incubation with Fab sample, listed as 100 mM Peracetic acid): 101%
Relative remaining SBC (%) (Fab; 24 h incubation in SIP solution, 10' incubation with Fab sample, listed as 100 mM Peracetic acid): 107%

N=C(NCCCCCCNC(=N)NC(=N)Nc1ccc(Cl)cc1)NC(=N)Nc1ccc(Cl)cc1.O=C(O)[C@H](O)[C@@H](O)[C@H](O)[C@H](O)CO.O=C(O)[C@H](O)[C@@H](O)[C@H](O)[C@H](O)CO [2% Chlorhexidine digluconale, Chlorhexidine digluconale]
Log10 reduction of Bacillus subtilis spores ([1]; contact time 0 min): 1.3 log10
Log10 reduction of Bacillus subtilis spores ([1]; contact time 15 min): 1.2 log10
Log10 reduction of Bacillus subtilis spores ([1]; contact time 1 hour): 0.7 log10
Log10 reduction of Bacillus subtilis spores ([1]; contact time 4 hours): 1.6 log10
Log10 reduction of Bacillus subtilis spores ([1]; contact time 24 hours): 0.2 log10
Log10 reduction of Pseudomonas aeruginosa ([2]; contact time 0 min): >6.9 log10
Log10 reduction of Pseudomonas aeruginosa ([2]; contact time 15 min): >6.9 log10
Log10 reduction of Pseudomonas aeruginosa ([2]; contact time 1 hour): >6.9 log10
Log10 reduction of Pseudomonas aeruginosa ([2]; contact time 4 hours): >6.9 log10
Log10 reduction of Pseudomonas aeruginosa ([2]; contact time 24 hours): >6.9 log10

OO [5% H2O2, hydrogen peroxide]
Relative remaining SBC (%) (Fab; [4]): 102%
Relative remaining SBC (%) (Fab; [5]): 102%

CC(=O)OO [500 mM Peracetic acid, Peracetic acid]
Relative remaining SBC (%) (Fab; [4]): 103%
Relative remaining SBC (%) (Fab; [5]): 97%
Relative remaining SBC (%) (Fab; 24 h incubation in SIP solution, 90' incubation with Fab sample): 102%

rPrA: recombinant Protein A
Affinity before and after SIP [3]: some loss in affinity with increasing SIP treatment
